In PMC12090182, “Repurposing of the RIPK1-Selective Benzo[1,4]oxazepin-4-one Scaffold for the Development of a Type III LIMK1/2 Inhibitor” (ACS Chemical Biology, 2025):

Assays:
Experiment in all cases: scanMAX KINOMEscan (Eurofins)
Assay type in all cases: binding
AAK1 = AAK1 (Homo sapiens, UniProt Q2M2I8); conditions: 1000 nM, read-out: Percent Control
From the text: (§1) Supplement cb5c00097_si_002.xlsx, sheet "Table S6 (Eurofins Selectivity)" | column: Percent Control

AMPK-alpha2 = AMPK-alpha2 (Homo sapiens, UniProt P54646); conditions: read-out: Percent Control
AMPK-alpha2, sequence (P54646 whole entry): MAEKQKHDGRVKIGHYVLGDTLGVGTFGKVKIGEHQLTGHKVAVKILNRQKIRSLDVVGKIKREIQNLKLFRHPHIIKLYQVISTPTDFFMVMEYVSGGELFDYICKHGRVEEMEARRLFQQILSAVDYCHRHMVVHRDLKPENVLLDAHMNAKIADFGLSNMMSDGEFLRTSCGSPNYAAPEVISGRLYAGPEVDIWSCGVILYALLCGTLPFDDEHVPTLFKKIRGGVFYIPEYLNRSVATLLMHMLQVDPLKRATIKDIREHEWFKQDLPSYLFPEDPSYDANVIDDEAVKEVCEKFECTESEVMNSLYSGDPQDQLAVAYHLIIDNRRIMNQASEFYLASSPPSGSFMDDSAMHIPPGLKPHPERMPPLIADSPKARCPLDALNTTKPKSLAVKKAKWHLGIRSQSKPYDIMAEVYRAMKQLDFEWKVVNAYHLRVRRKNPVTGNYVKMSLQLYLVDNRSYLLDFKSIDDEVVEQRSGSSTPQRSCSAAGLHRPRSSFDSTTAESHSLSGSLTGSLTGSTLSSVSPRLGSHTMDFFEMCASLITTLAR
From the text: as §1

BMPR1A = BMPR1A (Homo sapiens, UniProt P36894); conditions: 1000 nM, read-out: Percent Control
From the text: as §1

CAMK1 = CAMK1 (Homo sapiens, UniProt Q14012); conditions: read-out: Percent Control
CAMK1, sequence (Q14012 whole entry): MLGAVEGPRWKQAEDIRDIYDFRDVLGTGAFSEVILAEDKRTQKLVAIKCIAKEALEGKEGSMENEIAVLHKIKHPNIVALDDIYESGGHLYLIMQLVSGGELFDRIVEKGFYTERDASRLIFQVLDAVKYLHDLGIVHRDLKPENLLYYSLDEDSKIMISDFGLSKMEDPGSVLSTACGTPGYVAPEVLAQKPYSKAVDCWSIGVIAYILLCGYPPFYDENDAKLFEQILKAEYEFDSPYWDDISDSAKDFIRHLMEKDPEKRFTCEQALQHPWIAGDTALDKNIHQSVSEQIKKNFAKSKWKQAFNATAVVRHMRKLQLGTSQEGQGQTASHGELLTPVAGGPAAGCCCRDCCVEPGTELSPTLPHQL
From the text: as §1

CAMK2A = CAMK2A (Homo sapiens, UniProt Q9UQM7); conditions: 1000 nM, read-out: Percent Control
From the text: as §1

CDC2L5 = CDC2L5 (Homo sapiens, UniProt Q14004); conditions: read-out: Percent Control
CDC2L5, sequence (Q14004 whole entry): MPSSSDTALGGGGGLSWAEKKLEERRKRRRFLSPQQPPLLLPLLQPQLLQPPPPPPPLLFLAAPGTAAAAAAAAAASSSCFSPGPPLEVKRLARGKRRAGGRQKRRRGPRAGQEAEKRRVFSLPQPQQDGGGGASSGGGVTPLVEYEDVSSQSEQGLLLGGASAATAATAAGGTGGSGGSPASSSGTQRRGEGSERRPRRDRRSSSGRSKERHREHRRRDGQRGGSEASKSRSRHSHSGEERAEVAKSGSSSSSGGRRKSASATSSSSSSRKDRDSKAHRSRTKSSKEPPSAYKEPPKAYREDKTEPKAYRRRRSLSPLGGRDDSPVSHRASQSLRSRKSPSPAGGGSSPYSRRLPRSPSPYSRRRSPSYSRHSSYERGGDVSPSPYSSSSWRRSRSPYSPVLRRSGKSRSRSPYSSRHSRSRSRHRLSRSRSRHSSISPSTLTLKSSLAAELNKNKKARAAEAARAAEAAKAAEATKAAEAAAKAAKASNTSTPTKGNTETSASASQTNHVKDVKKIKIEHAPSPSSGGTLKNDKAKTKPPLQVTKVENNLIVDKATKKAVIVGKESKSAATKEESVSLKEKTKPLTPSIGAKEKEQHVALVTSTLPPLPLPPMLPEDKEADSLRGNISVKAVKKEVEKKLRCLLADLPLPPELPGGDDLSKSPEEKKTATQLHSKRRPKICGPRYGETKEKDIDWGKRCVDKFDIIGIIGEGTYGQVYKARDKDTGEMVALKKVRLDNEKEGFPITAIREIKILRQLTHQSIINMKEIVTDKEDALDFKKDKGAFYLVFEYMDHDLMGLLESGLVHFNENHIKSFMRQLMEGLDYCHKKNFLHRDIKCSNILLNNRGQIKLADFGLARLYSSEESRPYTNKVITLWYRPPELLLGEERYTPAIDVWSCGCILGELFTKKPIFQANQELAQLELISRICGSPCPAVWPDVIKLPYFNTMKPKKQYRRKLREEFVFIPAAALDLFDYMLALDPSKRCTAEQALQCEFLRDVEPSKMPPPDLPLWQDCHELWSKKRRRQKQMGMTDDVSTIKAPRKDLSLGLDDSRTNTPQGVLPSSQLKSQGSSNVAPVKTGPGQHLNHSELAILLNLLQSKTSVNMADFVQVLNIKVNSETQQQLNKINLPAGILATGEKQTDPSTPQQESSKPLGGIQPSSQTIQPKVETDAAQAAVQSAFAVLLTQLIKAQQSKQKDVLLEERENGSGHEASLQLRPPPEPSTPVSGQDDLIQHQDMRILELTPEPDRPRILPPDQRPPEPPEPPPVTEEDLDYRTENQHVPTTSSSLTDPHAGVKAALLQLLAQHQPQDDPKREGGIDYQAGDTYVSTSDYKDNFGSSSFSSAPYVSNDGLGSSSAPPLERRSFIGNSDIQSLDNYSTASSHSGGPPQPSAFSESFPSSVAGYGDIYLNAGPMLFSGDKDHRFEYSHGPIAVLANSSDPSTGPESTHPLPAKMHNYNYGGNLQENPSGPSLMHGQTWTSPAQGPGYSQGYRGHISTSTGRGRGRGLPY
From the text: as §1

CSNK1E = CSNK1E (Homo sapiens, UniProt P49674); conditions: read-out: Percent Control
CSNK1E, sequence (P49674 whole entry): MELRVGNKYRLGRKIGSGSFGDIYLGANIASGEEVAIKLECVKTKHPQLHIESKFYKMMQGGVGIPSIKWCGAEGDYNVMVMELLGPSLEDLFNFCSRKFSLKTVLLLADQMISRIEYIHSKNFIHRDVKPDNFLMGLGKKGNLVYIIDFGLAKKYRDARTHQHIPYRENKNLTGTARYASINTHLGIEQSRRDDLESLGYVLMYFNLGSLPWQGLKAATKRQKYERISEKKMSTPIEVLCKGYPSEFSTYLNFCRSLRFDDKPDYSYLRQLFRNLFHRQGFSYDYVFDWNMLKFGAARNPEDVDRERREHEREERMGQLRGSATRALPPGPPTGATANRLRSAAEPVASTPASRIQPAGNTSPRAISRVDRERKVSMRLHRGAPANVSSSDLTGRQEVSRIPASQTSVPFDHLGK
From the text: as §1

DCAMKL3 = DCAMKL3 (Homo sapiens, UniProt Q9C098); conditions: read-out: Percent Control
From the text: as §1

GRK2 = GRK2 (Homo sapiens, UniProt P25098); conditions: read-out: Percent Control
GRK2, sequence (P25098 whole entry): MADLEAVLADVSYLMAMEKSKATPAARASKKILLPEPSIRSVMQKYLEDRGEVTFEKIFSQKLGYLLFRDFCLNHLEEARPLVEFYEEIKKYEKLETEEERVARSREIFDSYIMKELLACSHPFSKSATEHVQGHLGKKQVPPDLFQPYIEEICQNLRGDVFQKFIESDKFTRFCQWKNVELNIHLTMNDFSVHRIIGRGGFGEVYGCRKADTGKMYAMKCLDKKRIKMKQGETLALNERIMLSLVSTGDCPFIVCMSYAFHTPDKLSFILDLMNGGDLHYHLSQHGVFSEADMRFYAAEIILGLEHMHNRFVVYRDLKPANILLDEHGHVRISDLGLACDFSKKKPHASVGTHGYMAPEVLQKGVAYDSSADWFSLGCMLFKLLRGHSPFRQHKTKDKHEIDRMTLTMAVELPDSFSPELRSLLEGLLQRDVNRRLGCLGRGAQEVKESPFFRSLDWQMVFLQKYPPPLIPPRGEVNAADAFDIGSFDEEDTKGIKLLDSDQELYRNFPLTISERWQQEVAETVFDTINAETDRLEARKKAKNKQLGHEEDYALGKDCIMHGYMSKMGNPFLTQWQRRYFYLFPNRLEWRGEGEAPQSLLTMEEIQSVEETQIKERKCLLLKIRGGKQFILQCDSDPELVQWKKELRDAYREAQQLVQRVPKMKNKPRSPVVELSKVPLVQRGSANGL
From the text: as §1

GSK3B = GSK3B (Homo sapiens, UniProt P49841); conditions: read-out: Percent Control
GSK3B, sequence (P49841 whole entry): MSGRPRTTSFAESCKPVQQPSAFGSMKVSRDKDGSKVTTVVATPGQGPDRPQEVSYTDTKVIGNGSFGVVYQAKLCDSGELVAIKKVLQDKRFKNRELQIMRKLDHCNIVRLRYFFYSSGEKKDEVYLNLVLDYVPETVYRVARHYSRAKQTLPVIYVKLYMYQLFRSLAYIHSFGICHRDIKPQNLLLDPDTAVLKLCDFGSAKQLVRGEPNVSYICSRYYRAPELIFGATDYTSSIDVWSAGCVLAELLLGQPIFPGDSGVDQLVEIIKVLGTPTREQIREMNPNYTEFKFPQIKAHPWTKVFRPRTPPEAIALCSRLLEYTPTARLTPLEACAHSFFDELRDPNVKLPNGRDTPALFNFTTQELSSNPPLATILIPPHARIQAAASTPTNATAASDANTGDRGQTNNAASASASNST
From the text: as §1

IKK-alpha = IKK-alpha (Homo sapiens, UniProt O15111); conditions: read-out: Percent Control
IKK-alpha, sequence (O15111 whole entry): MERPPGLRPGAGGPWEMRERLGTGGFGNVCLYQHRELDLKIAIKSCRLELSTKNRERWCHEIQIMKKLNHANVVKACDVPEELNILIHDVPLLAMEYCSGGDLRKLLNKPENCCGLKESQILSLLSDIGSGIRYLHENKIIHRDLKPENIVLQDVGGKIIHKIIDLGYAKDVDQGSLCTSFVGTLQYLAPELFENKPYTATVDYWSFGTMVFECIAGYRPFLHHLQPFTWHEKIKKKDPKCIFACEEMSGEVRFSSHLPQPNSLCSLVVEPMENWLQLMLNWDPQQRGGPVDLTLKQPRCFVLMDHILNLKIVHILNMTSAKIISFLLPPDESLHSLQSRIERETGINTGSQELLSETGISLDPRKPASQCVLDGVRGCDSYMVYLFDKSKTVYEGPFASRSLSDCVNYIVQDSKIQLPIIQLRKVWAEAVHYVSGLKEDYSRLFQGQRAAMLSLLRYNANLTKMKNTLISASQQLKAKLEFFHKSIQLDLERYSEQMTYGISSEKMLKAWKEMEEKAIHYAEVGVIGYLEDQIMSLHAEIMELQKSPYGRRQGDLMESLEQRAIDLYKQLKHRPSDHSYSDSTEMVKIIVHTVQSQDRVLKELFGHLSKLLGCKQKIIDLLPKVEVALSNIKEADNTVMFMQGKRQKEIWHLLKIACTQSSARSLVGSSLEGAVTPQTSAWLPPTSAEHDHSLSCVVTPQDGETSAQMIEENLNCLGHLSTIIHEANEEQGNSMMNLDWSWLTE
From the text: as §1

IKK-beta = IKK-beta (Homo sapiens, UniProt O14920); conditions: read-out: Percent Control
From the text: as §1

MAP4K5 = MAP4K5 (Homo sapiens, UniProt Q9Y4K4); conditions: 1000 nM, read-out: Percent Control
From the text: as §1

MARK2 = MARK2 (Homo sapiens, UniProt Q7KZI7); conditions: 1000 nM, read-out: Percent Control
From the text: as §1

MARK4 = MARK4 (Homo sapiens, UniProt Q96L34); conditions: compound concentration 100 nM; Entrez MARK4; read-out: Percent Control
From the text: as §1

MLK2 = MLK2 (Homo sapiens, UniProt Q02779); conditions: 1000 nM, read-out: Percent Control
From the text: as §1

MYLK4 = MYLK4 (Homo sapiens, UniProt Q86YV6); conditions: compound concentration 100 nM; Entrez MYLK4; read-out: Percent Control
From the text: as §1

NDR2 = NDR2 (Homo sapiens, UniProt Q9Y2H1); conditions: 1000 nM, read-out: Percent Control
From the text: as §1

NEK2 = NEK2 (Homo sapiens, UniProt P51955); conditions: compound concentration 100 nM; Entrez NEK2; read-out: Percent Control
From the text: as §1

NEK3 = NEK3 (Homo sapiens, UniProt P51956); conditions: 1000 nM, read-out: Percent Control
From the text: as §1

PAK1 = PAK1 (Homo sapiens, UniProt Q13153); conditions: 1000 nM, read-out: Percent Control
From the text: as §1

PAK3 = PAK3 (Homo sapiens, UniProt O75914); conditions: 1000 nM, read-out: Percent Control
From the text: as §1

PIK3C2G = PIK3C2G (Homo sapiens, UniProt O75747); conditions: 1000 nM, read-out: Percent Control
From the text: as §1

PIK3CB = PIK3CB (Homo sapiens, UniProt P42338); conditions: 1000 nM, read-out: Percent Control
From the text: as §1

PIP5K2B = PIP5K2B (Homo sapiens, UniProt P78356); conditions: 1000 nM, read-out: Percent Control
From the text: as §1

PRKG2 = PRKG2 (Homo sapiens, UniProt Q13237); conditions: 1000 nM, read-out: Percent Control
From the text: as §1

PRP4 = PRP4 (Homo sapiens, UniProt Q13523); conditions: compound concentration 100 nM; Entrez PRPF4B; read-out: Percent Control
From the text: as §1

RIOK2 = RIOK2 (Homo sapiens, UniProt Q9BVS4); conditions: compound concentration 100 nM; Entrez RIOK2; read-out: Percent Control
From the text: as §1

RIOK3 = RIOK3 (Homo sapiens, UniProt O14730); conditions: 1000 nM, read-out: Percent Control
From the text: as §1

ROCK1 = ROCK1 (Homo sapiens, UniProt Q13464); conditions: 1000 nM, read-out: Percent Control
From the text: as §1

SBK1 = SBK1 (Homo sapiens, UniProt Q52WX2); conditions: compound concentration 100 nM; Entrez SBK1; read-out: Percent Control
From the text: as §1

SIK2 = SIK2 (Homo sapiens, UniProt Q9H0K1); conditions: compound concentration 100 nM; Entrez SIK2; read-out: Percent Control
From the text: as §1

SNARK = SNARK (Homo sapiens, UniProt Q9H093); conditions: 1000 nM, read-out: Percent Control
From the text: as §1

STK36 = STK36 (Homo sapiens, UniProt Q9NRP7); conditions: 1000 nM, read-out: Percent Control
From the text: as §1

TRKB = TRKB (Homo sapiens, UniProt Q16620); conditions: 1000 nM, read-out: Percent Control
From the text: as §1

YANK3 = YANK3 (Homo sapiens, UniProt Q86UX6); conditions: 1000 nM, read-out: Percent Control
From the text: as §1

## CN1C(=O)[C@@H](N2CCc3c(nn(Cc4ccccc4)c3C(N)=O)C2=O)COc2cc(Cl)ccc21 [Compound 10, (S)-2-benzyl-6-(8-chloro-5-methyl-4-oxo-2,3,4,5-tetrahydrobenzo[b][1,4]oxazepin-3-yl)-7-oxo-4,5,6,7-tetrahydro-2H-pyrazolo[3,4-c]pyridine-3-carboxamide]
AAK1
  remaining binding at 1 µM: 83%
AMPK-alpha2; 1000 nM
  remaining binding at 1 µM: 100%
AMPK-alpha2; compound concentration 100 nM, Entrez PRKAA2
  remaining binding at 0.1 µM: 100%
BMPR1A
  remaining binding at 1 µM: 80%
CAMK1; 1000 nM
  remaining binding at 1 µM: 100%
CAMK1; compound concentration 100 nM, Entrez CAMK1
  remaining binding at 0.1 µM: 90%
CAMK2A
  remaining binding at 1 µM: 90%
CDC2L5; 1000 nM
  remaining binding at 1 µM: 100%
CDC2L5; compound concentration 100 nM, Entrez CDK13
  remaining binding at 0.1 µM: 100%
CSNK1E; 1000 nM
  remaining binding at 1 µM: 100%
CSNK1E; compound concentration 100 nM, Entrez CSNK1E
  remaining binding at 0.1 µM: 91%
DCAMKL3; 1000 nM
  remaining binding at 1 µM: 100%
DCAMKL3; compound concentration 100 nM, Entrez DCLK3
  remaining binding at 0.1 µM: 75%
GRK2; 1000 nM
  remaining binding at 1 µM: 99%
GRK2; compound concentration 100 nM, Entrez ADRBK1
  remaining binding at 0.1 µM: 91%
GSK3B; 1000 nM
  remaining binding at 1 µM: 100%
GSK3B; compound concentration 100 nM, Entrez GSK3B
  remaining binding at 0.1 µM: 100%
IKK-alpha; 1000 nM
  remaining binding at 1 µM: 100%
IKK-alpha; compound concentration 100 nM, Entrez CHUK
  remaining binding at 0.1 µM: 93%
IKK-beta; 1000 nM
  remaining binding at 1 µM: 100%
IKK-beta; compound concentration 100 nM, Entrez IKBKB
  remaining binding at 0.1 µM: 97%
MAP4K5
  remaining binding at 1 µM: 88%
MARK2
  remaining binding at 1 µM: 81%
MARK4
  remaining binding at 0.1 µM: 76%
MLK2
  remaining binding at 1 µM: 94%
MYLK4
  remaining binding at 0.1 µM: 92%
NDR2
  remaining binding at 1 µM: 96%
NEK2
  remaining binding at 0.1 µM: 82%
NEK3
  remaining binding at 1 µM: 86%
PAK1
  remaining binding at 1 µM: 76%
PAK3
  remaining binding at 1 µM: 74%
PIK3C2G
  remaining binding at 1 µM: 84%
PIK3CB
  remaining binding at 1 µM: 88%
PIP5K2B
  remaining binding at 1 µM: 73%
PRKG2
  remaining binding at 1 µM: 90%
PRP4
  remaining binding at 0.1 µM: 67%
RIOK2
  remaining binding at 0.1 µM: 94%
RIOK3
  remaining binding at 1 µM: 77%
ROCK1
  remaining binding at 1 µM: 69%
SBK1
  remaining binding at 0.1 µM: 68%
SIK2
  remaining binding at 0.1 µM: 71%
SNARK
  remaining binding at 1 µM: 92%
STK36
  remaining binding at 1 µM: 80%
TRKB
  remaining binding at 1 µM: 76%
YANK3
  remaining binding at 1 µM: 92%
